Measurements published in ChEMBL document CHEMBL1201862, “PubChem BioAssay data set” (2004).
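A five-concentration, 48-hour dose response in 96-well plates underlies each endpoint, interpolated linearly between surrounding concentrations. The concentration for 50% growth inhibition is given as GI50.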 Calls of active or inactive are those of the source. No stated cut-off is given here; in the data, active = GI50 up to about 1.1 µM and inactive = higher.

Legend:
Assay in all cases: NCI anticancer screen, dose series, 48 h
XF498 = system: XF498
KM-20L2 = system: KM-20L2
LXFL 529 = system: LXFL 529
DMS-114 = system: DMS-114
RXF 631 = system: RXF 631
HOP-18 = system: HOP-18
SNB-78 = system: SNB-78
DMS-273 = system: DMS-273

Measured: GI50

CC1OC(OCC2COC(O)(Oc3c(-c4ccc(O)c(O)c4)oc4cc(O)cc(O)c4c3=O)C(O)C2O)C(O)C(O)C1O (centres undefined)
inactive: XF498 > 100 µM | KM-20L2 > 100 µM | LXFL 529 > 100 µM | DMS-114 > 100 µM | RXF 631 > 100 µM | HOP-18 > 100 µM | SNB-78 > 100 µM | DMS-273 > 100 µM

COc1ccc(C2ON(c3ccccn3)CC=C2C)cc1 (centres undefined)
inactive: XF498 > 100 µM | KM-20L2 > 100 µM | LXFL 529 > 100 µM | DMS-114 > 100 µM | RXF 631 > 100 µM | HOP-18 > 100 µM | SNB-78 > 100 µM | DMS-273 > 100 µM

CCOP(=O)(OCC)C1CCCOC1=O (centres undefined)
inactive: XF498 > 100 µM | KM-20L2 > 100 µM | LXFL 529 > 100 µM | DMS-114 > 100 µM | RXF 631 > 100 µM | HOP-18 > 100 µM | SNB-78 > 100 µM | DMS-273 > 100 µM
